Source: patent publication US20250177547A1, “PSMA-STEAP1 DUAL VARIABLE DOMAIN IMMUNOGLOBLIN (DVD-Ig) MOLECULES AND DRUG CONJUGATES” (AbbVie Inc., priority 2023, published 2025)
Values joined by “and” are separate entries in the source; they are usually repeats but may differ in a detail not shown here. Equal entries are not always repeated.

Experiments:
LNCaP.FGC cells = test: In vitro cytotoxicity of MMAE conjugates (CellTiter-Glo), LNCaP.FGC; conditions: read-out: LNCaP.FGC IC50, 7 days
HEK293-PSMA cells = test: In vitro cytotoxicity of MMAE conjugates (CellTiter-Glo), HEK293-PSMA; conditions: read-out: HEK293-PSMA IC50, 7 days, CellTiter-Glo

PSMA
IC50 (LNCaP.FGC cells): 0.15 nM and 0.1 nM | IC50 (HEK293-PSMA cells): 0.07 nM and 0.06 nM
